The source of these data is patent US8604220B2, “Isolation of Simalikalactone E and use thereof as a medicament, in the treatment of malaria” (priority 2009, dated 2013).

Data set [1] has as its system liver stages of Plasmodium yoelii. Kind of data set: In vitro activity against liver stages of P. yoelii in mouse primary hepatocytes. The data set is classed as cell-based. The conditions noted are these: for IC50: Plasmodium yoelii, Hepatocyte, liver stages, 48 hours, SkE mean of three experiments, read-out: IC50 on murine hepatocytes infected with P. yoelii. As for the experimental part:
(§1) The in vitro activity of SkE against the pre-erythrocytic stages was tested on different Plasmodium species. […] The in vitro assays were carried out using cultures of human primary hepatocytes (HH) or mouse primary hepatocytes (MH), respectively. The primary cells were isolated by collagenase perfusion of pieces of liver (obtained from humans or from female Swiss mice, respectively), followed by purification of the separated cells on a percoll gradient. The hepatocytes were seeded into 96-well microplates (35 000 MH/well and 82 500 HH/well) and maintained in culture at 37° C. and 5% CO2 in a William medium supplemented with 10% FCS (Hyclone), 100 U/ml of penicillin, […] of streptomycin, 2 mM of glutamine, 5 μg/ml of insulin and 5×10^−7 M of hydrocortisone hemisuccinate. A stock solution of SkE was prepared in DMSO at 200 mg/ml, and then diluted in complete medium described above so as to obtain the desired concentrations. The hepatocytes were infected with P. yoelii sporozoites (30 000) or P. falciparum sporozoites (40 000). The SkE compound was added simultaneously with sporozoites at various concentrations. The culture medium was then replaced 3 h after the inoculation of the sporozoites, and then every day. The cultures were fixed 48 hours after the infection for P. yoelii, and 5 days after infection for P. falciparum. The inhibitory effect of the compound was quantified, after fluorescent immunolabeling of the liver schizonts with a mouse serum directed against PfHSP70, by fluorescence microscopy analysis.

Data set [2] is described as follows: Cytotoxicity on THP1 cells. The data set is classed as cell-based. As to conditions: human.
The next data set relates to P. vinckei petteri. Kind of data set: Antimalarial activity in vivo, mice infected with P. vinckei petteri (Peters test). Further details: species or system Plasmodium vinckei petteri. The conditions noted are these: for survival of the mice compared with chloroquine: IP route; for ED50, dose inhibiting 50% of the growth of P. vinckei petteri: mice, 4 days. As for the experimental part: The antimalarial activity of SkE was evaluated on female Swiss mice (22 g±2) infected with P. vinckei petteri. Before infection of the mice having been used for the test, the parasites were thawed, injected and maintained by passaging in two batches of mice. The parasitized blood was taken from the retro-orbital sinus and each mouse of the study was infected with 2×10^7 parasites intraperitoneally. The infected animals were divided up into batches of 5 per cage and were treated intraperitoneally each day for 4 days. The SkE was tested at 4 concentrations prepared in 90% DMSO (intraperitoneal route) or carboxymethylcellulose (oral route) in such a way that each mouse receives 200 μl of preparation. The experiment included control parasitized mice receiving 200 μl of 90% DMSO or CMC alone orally, and 3 batches of 5 mice, each of these batches being treated with solutions of chloroquine at 1, 5 and 10 mg/kg diluted in PBS (IP).
At the end of the treatment (5 d after the infection), a blood smear was performed from a drop of blood originating from the tail of each mouse, fixed with methanol and stained with Giemsa. The slides were examined under a microscope and the parasitemia counted for 10 000 red blood cells.
The survival of the mice was monitored for 21 days.

Data set [3] deals with P. falciparum (F32 Tanzania, FcB1 Colombia, W2 Indochina strains). Briefly: Antiplasmodial activity in vitro, tritiated hypoxanthine incorporation. It is filed as cell-based. As to conditions: Plasmodium falciparum, 48 h, read-out: IC50, inhibits 50% of the growth of P. falciparum in culture. The procedure:
The following three strains of Plasmodium falciparum were used: • chloroquine-sensitive F32 Tanzania • chloroquine-resistant FcB1 Colombia • W2 Indochina.
The antimalarial activity of the various products is evaluated by means of the radioactive method using tritiated hypoxanthine, described by Desjardins et al., with the modifications introduced by Benoit et al. (Desjardins R. E. et al., Antimicrob. Agents Chemother, 1979, 16: 710-718; F. Benoit et al. Trans. Roy. Soc. Trop. Med. Hyg. 89: 217-218).
The test is carried out in 96-well culture plates (supplier: TPP, Switzerland) on cultures mainly at the ring stage. The parasites are brought into contact with the products for 48 h at 37° C. and 5% CO2. The growth of the parasite is then estimated by following tritiated hypoxanthine incorporation into the nucleic acids of the parasite. The IC50 values are determined graphically on curves of percentage inhibition of growth as a function of concentration. Thus, the antimalarial activity of SkE was evaluated according to the following protocol. […]
The filter is then placed in a cassette which is placed in the β-counter in order to measure the radioactivity. […]

Data set [4] deals with liver stages of Plasmodium falciparum. Kind of data set: In vitro activity against liver stages of P. falciparum in human primary hepatocytes. It is filed as cell-based. As to conditions: for therapeutic index TI=TC50/IC50: P. falciparum liver stages, human hepatocytes; for IC50: Plasmodium falciparum, Hepatocyte, 120 h, human primary hepatocytes, 5 days, SkE mean of two experiments. As for the experimental part: as §1

Another data set relates to Vero cells. Kind of data set: Cytotoxicity on Vero cells, tritiated hypoxanthine incorporation. It is filed as cell-based, monkey. The conditions noted are these: for toxicity compared with Simalikalactone D: mammalian cell lines (Vero cells). The procedure: (§2) This evaluation is carried out on two cell types, the MCF-7 line, which is a mammary tumor cell line, and Vero cells (monkey kidney cells).
(§3) VERO cells are monkey kidney epithelial cells. They are cultured in the same way as the MCF-7, but in EMEM medium supplemented with 10% FCS, nonessential amino acids, sodium pyruvate, HEPES and glutamine.
(§4) The evaluation of cytotoxicity follows the same method as the antimalarial activity test, but with P. falciparum being replaced with the MCF-7 or VERO cells.
(§5) However, there are a few minor modifications, owing to the different mode of culture. This is because the cells used for the cytotoxicity tests are adherent cells and their growth is slower. Consequently, they are seeded in 96-well plates 24 hours before they are brought into contact with the test products. After 24 h, the cells adhere to the bottom of the well, the medium is changed, and then the test molecules are added, the dilution thereof being carried out in complete medium. The medium used depends on the cells used (DMEM or EMEM).
(§6) In the same way as for the antimalarial activity test, tritiated hypoxanthine is added 24 hours after bringing into contact with the products, and the plate is placed in the freezer 48 hours later. Finally, the radioactivity is measured as for the antimalarial activity test. The evaluation of the IC50 values is carried out graphically as for that of P. falciparum.

Assay in data set [5]: as above
It is filed as cell-based, monkey. As to conditions: monkey, Vero cells (monkey kidney epithelial cells). As for the experimental part:
as §2, §3, §4, §5, §6

For data set [6], the system named is primary rodent hepatocytes. Briefly: In vitro cytotoxicity on primary rodent hepatocytes, MTT assay. It is filed as cell-based, mouse. As to conditions: the other two experiments; highest concentration tested 5.54 μM. The procedure: (§7) In parallel, the cytotoxicity of the compound was evaluated on human and rodent hepatocytes treated under the same conditions as in the assays for activity of the test compound, by means of the MTT (tetrazolium) colorimetric assay (Mosmann et al., 1983). After incubation of the primary rodent or human hepatocytes for 2 days or 5 days, respectively, with the various concentrations of the test compound, 100 μl of MTT solution ([…]) were added to each well. The plates were then incubated for 4 hours at 37° C. The formazan crystals were then dissolved in 100 μl of DMSO-ethanol mixture (V/V). The optical density was measured by spectrophotometry at 540 nm. The results are expressed as percentage cell viability relative to the untreated control.

Assay in data set [7]: as above
The data set is classed as cell-based, mouse. The conditions noted are these: Swiss, mouse, primary hepatocytes; one of the 3 experiments carried out; read-out: cytotoxicity IC50 on murine hepatocytes. As for the experimental part:
as §7

[8] abbreviates: Vero cells versus P. falciparum.

As to `CCC(C)C(=O)O[C@@H]1[C@H]2C(C)=CC(=O)[C@@H](O)[C@]2(C)[C@H]2[C@@H](O)[C@H](O)[C@@]3(C)OC[C@@]24[C@@H]1OC(=O)[C@H](OC(=O)C(C)CC)[C@@H]34` (some centres unmarked) [SkE, Simalikalactone E], the IC50 in data set [1] was 186 ± 16 nM; in [2], 33 nM; in [3], 24 to 68 nM; in data set [4], 1200 ± 190 nM; with Vero cells (Primates, Vero cells, read-out: inhibits 50% of the growth of Vero mammalian cells), 6570 nM. Also, the “activity relative to primaquine on P. yoelii liver stages” value in data set [1] (fold more active than primaquine, same conditions) is listed as “at least 3 times”. Also, the “survival of the mice compared with chloroquine” value with P. vinckei petteri (all doses, p<0.05) was “always better than that of the mice treated with CQ at the doses of 1”; in the data set on P. vinckei petteri (dose of 1 mg/kg/d), “equivalent to what is obtained for CQ at 10 mg/kg/d”. Moreover, the “mean survival time of the mice” value in the data set with P. vinckei petteri (ip at 1 mg/kg/day, monitored for 3 weeks, one experiment) is reported as “greater than 18.6 days”. The “ED50, dose inhibiting 50% of the growth of P. vinckei petteri” value is on record as 0.5 mg/kg/day in the data set with P. vinckei petteri (intraperitoneally) and 1 mg/kg/day in the data set with P. vinckei petteri (orally). Also, in data set [4], the “therapeutic index TI=TC50/IC50” value came out at 75. Moreover, the selectivity index entry with Vero cells (setting [8]) is on record as “greater than 100”. In the data set on Vero cells (setting [8]), the “selectivity index with respect to P. falciparum compared with SkD” value is listed as “twice that of SkD”. In addition, the “toxicity compared with Simalikalactone D” value in the data set with Vero cells is given as “less than that of SkD”; in the data set with Vero cells (listed as Simalikalactone E), “less toxicity than Simalikalactone D”. The compound further came in with an IC50 at 72 h in data set [5] of 6000 nM. Moreover, the “cytotoxicity on murine hepatocytes at highest concentration tested” value in [6] was “no toxicity was observed”. In addition, in [7], the IC50 at 2 days came out at 1120 nM.
Take `CCN(CC)CCCC(C)Nc1ccnc2cc(Cl)ccc12` (centres unmarked) [chloroquine, reference compound]: the “ED50, dose inhibiting 50% of the growth of P. vinckei petteri” value in the data set with P. vinckei petteri (intraperitoneally) was determined as 3 mg/kg/day.
Consider `COc1cc(NC(C)CCCN)c2ncccc2c1` (centres unmarked) [primaquine, reference compound], for which the IC50 in data set [1] worked out at 640 nM. For the same compound, in [4], the “therapeutic index TI=TC50/IC50” value amounted to 81 and the IC50 came to 800 nM.
